From PubChem BioAssay AID977614 (Broad Institute, 2014)
Calls of active or inactive are those of the source.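 Rule for the calls: active = parasite count per well reduced by over 3 SD from the mean, with host cell number above 80% of untreated; inactive = the rest.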

tested on: L. donovani amastigotes in THP-1 macrophages, DAPI imaging, 72 h; experiment: L. donovani intracellular amastigote growth inhibitors, imaging, THP-1 host macrophages, single concentration (AID 977614);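 note: signal is the parasite per host cell ratio from DAPI stained kinetoplasts and nuclei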

Structure (SMILES) | AC50
CC(=O)N1[C@H](CO)[C@@H](c2ccccc2)[C@H]1CN(CC(C)C)C(=O)c1ccccn1 | > 10 µM (inactive)
O=S(=O)(NC[C@H]1[C@@H](c2ccccc2)[C@@H](CO)N1CC1CC1)c1ccccc1 | > 10 µM (inactive)
O=C(C1CCC1)N1C[C@H]2[C@@H](c3ccccc31)[C@@H](CO)N2C(=O)Nc1cccc(F)c1 | > 10 µM (inactive)
C[C@H]1CN([C@@H](C)CO)C(=O)CCCn2cc(nn2)CO[C@H]1CN(C)C(=O)Nc1cccc2ccccc12 | > 10 µM (inactive)
CN1[C@@H]2CN(C(=O)C3CCCCC3)c3ccccc3[C@@H]2[C@@H]1CO | > 10 µM (inactive)
CC(C)N(C[C@@H]1N[C@@H](CO)[C@@H]1c1ccccc1)S(=O)(=O)c1ccccc1 | > 10 µM (inactive)
C[C@H]1CN([C@@H](C)CO)C(=O)CCCn2nncc2CO[C@H]1CN(C)Cc1ccc2cccnc2c1 | > 10 µM (inactive)
CC(C)NC(=O)N1[C@@H]2CN(C)c3ccccc3[C@@H]2[C@@H]1CO | > 10 µM (inactive)
CC(=O)NC[C@@H]1[C@@H](c2ccc(-c3cccnc3)cc2)[C@@H](CO)N1C(=O)CC1CC1 | > 10 µM (inactive)
COc1ccccc1NC(=O)N1C[C@H]2[C@@H](c3ccccc31)[C@@H](CO)N2Cc1ccc2c(c1)OCO2 | > 10 µM (inactive)
C/C=C/c1ccc([C@H]2[C@@H](CO)N(C(=O)CC)[C@H]2CN(C)Cc2cncnc2)cc1 | > 10 µM (inactive)
CC(C)N(C[C@H]1[C@H](c2ccccc2)[C@@H](CO)N1S(C)(=O)=O)C(=O)CN(C)C | > 10 µM (inactive)
C[C@@H]1CN([C@H](C)CO)C(=O)CCCn2nncc2CO[C@H]1CN(C)S(=O)(=O)c1cn(C)cn1 | > 10 µM (inactive)
O=C(CN1CCOCC1)N1[C@H](CO)[C@@H]2c3ccccc3NC[C@@H]21 | > 10 µM (inactive)
OC[C@@H]1[C@@H]2c3ccccc3NC[C@@H]2N1Cc1cccnc1 | > 10 µM (inactive)
O=C(C1CCOCC1)N1C[C@H]2[C@@H](c3ccccc31)[C@@H](CO)N2C(=O)Cc1ccccn1 | > 10 µM (inactive)

Structure (SMILES) | AC50
Cc1noc(C)c1S(=O)(=O)N(C)C[C@H]1OCc2cnnn2CCCC(=O)N([C@H](C)CO)C[C@@H]1C | > 10 µM (inactive)
O=C(NC[C@H]1[C@H](c2ccccc2)[C@H](CO)N1C(=O)C1CCC1)NC1CCCC1 | > 10 µM (inactive)
CC(=O)NC[C@H]1[C@H](c2ccc(C3=CCCC3)cc2)[C@@H](CO)N1Cc1cccnc1 | > 10 µM (inactive)
COCCNC[C@@H]1[C@H](c2ccccc2)[C@H](CO)N1c1nc(C)c(C)s1 | > 10 µM (inactive)
C[C@H](CO)N1C[C@H](C)[C@@H](CN(C)C(=O)Oc2ccc3ccccc3c2)OCc2cn(nn2)CCCC1=O | > 10 µM (inactive)
O=S(=O)(c1ccccc1)N1C[C@@H]2[C@H](c3ccccc31)[C@H](CO)N2Cc1ccccn1 | > 10 µM (inactive)
C[C@H]1CN([C@@H](C)CO)C(=O)CCCn2nncc2CO[C@H]1CN(C)C(=O)Nc1ccc(-c2cccs2)cc1 | > 10 µM (inactive)
C[C@H](CO)N1C[C@H](C)[C@@H](CN(C)S(=O)(=O)c2ccc(Oc3ccccc3)nc2)OCc2cnnn2CCCC1=O | > 10 µM (inactive)
CN1C[C@H]2[C@@H](c3ccccc31)[C@@H](CO)N2C(=O)C1CCOCC1 | > 10 µM (inactive)
CCCNC(=O)N1C[C@H]2[C@@H](c3ccccc31)[C@H](CO)N2C(=O)CN1CCOCC1 | > 10 µM (inactive)
COCCN(C[C@@H]1[C@@H](c2ccccc2)[C@H](CO)N1C(C)=O)C(=O)c1cccnc1 | > 10 µM (inactive)
CCC(=O)N(C)C[C@H]1[C@@H](c2ccc(-c3cccc(F)c3)cc2)[C@@H](CO)N1C(C)=O | > 10 µM (inactive)
CCC(=O)NC[C@@H]1[C@@H](c2ccc(-c3ccc(F)cc3)cc2)[C@@H](CO)N1C(=O)CC | > 10 µM (inactive)
Cc1cccc(S(=O)(=O)N2C[C@H]3[C@@H](c4ccccc42)[C@H](CO)N3Cc2ccc3c(c2)OCO3)c1 | > 10 µM (inactive)
COc1ccc(CN2[C@H](CO)[C@H]3c4ccccc4NC[C@H]32)cc1 | > 10 µM (inactive)
